Measurements reported in patent US11964052B2, “Lipid compounds and lipid nanoparticle compositions” (SUZHOU ABOGEN BIOSCIENCES CO., LTD., priority 2021, dated 2024).

Tests used:
Type in all cases: physicochemical
[1] = Lipid nanoparticle size and polydispersity by dynamic light scattering (Malvern Zetasizer Nano ZS); conditions: LNP of cationic lipid/DSPC/cholesterol/PEG-lipid 50:10:38.5:1.5 with mRNA
Outline: (§1)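 LNPs of cationic lipid:DSPC:cholesterol:PEG-lipid (50:10:38.5:1.5 molar) with mRNA in 10–50 mM citrate pH 4, microfluidic mixing at 1:3 ethanol:aqueous, lipid:mRNA weight ratio ~10:1–30:1, dialysed into DPBS and 0.2 μm filtered. Size by DLS, 173° backscatter; encapsulation efficiency by Ribogreen assay.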

[2] = Encapsulation efficiency of lipid nanoparticles, Quant-it Ribogreen RNA quantification assay; conditions: LNP with mRNA
Outline: as §1

[3] = Apparent pKa of LNP formulations, TNS fluorescence assay; conditions: LNP cationic lipid/DSPC/cholesterol/DMG-PEG 50/10/38.5/1.5 mol %, pH 3 to 9
Outline: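 LNPs (cationic lipid/DSPC/cholesterol/DMG-PEG 50/10/38.5/1.5 mol %) at 0.1 mg/ml total lipid in citrate/phosphate/borate buffers, pH 3–9, with TNS added; fluorescence read at room temperature (ex 325, em 435 nm). Apparent pKa is the pH giving half-maximal fluorescence from a sigmoidal fit.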

| SMILES | polydispersity [1] | size (nm) [1] [nm] | Encapsulation Efficiency [2] [%] | Apparant Pka [3] |
| --- | --- | --- | --- | --- |
| CCCCCCCCC(CCCCCC)CC(=O)OCC(CCCCN(CCN(CCO)CCCC)C1CCC1)COC(=O)CC(CCCCCC)CCCCCCCC (stereo not drawn) [Compound 109] | 0.011 | 74 | 92.59 | 6.204 |
| CCCCCCCCC(CCCCCC)CC(=O)OCC(CCCCN(CCN(CCO)CCCCC)C1CCC1)COC(=O)CC(CCCCCC)CCCCCCCC (stereo not drawn) [Compound 110] | 0.038 | 75.71 | 92.71 | 6.147 |
| CCCCCCCCC(CCCCCC)CC(=O)OCC(CCCCN(CCN(CCO)CCCCCC)C1CCC1)COC(=O)CC(CCCCCC)CCCCCCCC (stereo not drawn) [Compound 111] | 0.048 | 62.77 | 92.54 | 6.072 |
